Patent publication US10214542B2, “Modified macrocyclic compounds” (BAYER PHARMA AKTIENGESELLSCHAFT, priority 2015, dated 2019)

Columns and labels:
CDK9/CycT1 = molecular target: T1, CDK9/CycT1 (Homo sapiens, UniProt P50750); assay: CDK9/CycT1 kinase assay (TR-FRET, Method 1a); type: biochemical; conditions: 10 μM ATP; for IC50: Method 1a; for Selectivity CDK9 over CDK2: IC50 (CDK2)/IC50 (CDK9): Methods 1a and 2a
T1 construct: Recombinant full-length His-tagged human CDK9 and CycT1; His; purchased Invitrogen PV4131; host or cells: insect cells
T1 sequence (P50750 whole entry): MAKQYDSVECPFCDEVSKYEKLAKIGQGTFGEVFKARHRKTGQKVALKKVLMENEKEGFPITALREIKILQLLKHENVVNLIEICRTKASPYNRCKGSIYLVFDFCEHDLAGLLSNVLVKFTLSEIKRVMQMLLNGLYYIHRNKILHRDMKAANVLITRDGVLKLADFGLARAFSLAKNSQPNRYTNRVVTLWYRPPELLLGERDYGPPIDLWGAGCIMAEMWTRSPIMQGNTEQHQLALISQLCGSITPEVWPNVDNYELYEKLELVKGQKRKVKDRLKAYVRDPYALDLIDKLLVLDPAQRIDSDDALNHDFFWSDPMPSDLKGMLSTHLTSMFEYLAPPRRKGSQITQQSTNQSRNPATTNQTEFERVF
T1 sequence (O60563 whole entry partner): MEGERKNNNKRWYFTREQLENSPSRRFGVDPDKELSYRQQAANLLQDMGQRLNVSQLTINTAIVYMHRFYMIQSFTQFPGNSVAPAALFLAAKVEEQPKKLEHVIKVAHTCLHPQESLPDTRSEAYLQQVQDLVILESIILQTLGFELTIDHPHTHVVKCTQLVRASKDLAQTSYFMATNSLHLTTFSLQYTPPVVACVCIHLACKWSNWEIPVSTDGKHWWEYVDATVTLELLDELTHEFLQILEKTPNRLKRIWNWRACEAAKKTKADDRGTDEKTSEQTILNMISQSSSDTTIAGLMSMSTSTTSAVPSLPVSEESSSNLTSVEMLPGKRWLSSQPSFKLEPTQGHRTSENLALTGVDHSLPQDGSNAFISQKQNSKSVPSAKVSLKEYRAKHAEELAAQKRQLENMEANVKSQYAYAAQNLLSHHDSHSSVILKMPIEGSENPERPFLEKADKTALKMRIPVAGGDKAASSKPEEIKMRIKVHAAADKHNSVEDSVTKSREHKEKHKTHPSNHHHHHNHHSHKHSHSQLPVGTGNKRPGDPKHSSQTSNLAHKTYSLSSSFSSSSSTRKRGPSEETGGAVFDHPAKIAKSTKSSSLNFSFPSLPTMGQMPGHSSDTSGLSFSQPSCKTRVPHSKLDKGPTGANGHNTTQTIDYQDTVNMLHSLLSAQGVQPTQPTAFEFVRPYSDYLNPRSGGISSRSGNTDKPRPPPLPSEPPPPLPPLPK
Excerpt: 1a. CDK9/CycT1 Kinase Assay:
CDK9/CycT1-inhibitory activity of compounds of the present invention was quantified employing the CDK9/CycT1 TR-FRET assay as described in the following paragraphs:
Recombinant full-length His-tagged human CDK9 and CycT1, expressed in insect cells and purified by Ni-NTA affinity chromatography, were purchased from Invitrogen (Cat. No PV4131). As substrate for the kinase reaction biotinylated peptide biotin-Ttds-YISPLKSPYKISEG (C-terminus in amid form) was used which can be purchased e.g. from the company JERINI Peptide Technologies (Berlin, Germany).
For the assay 50 nl of a 100 fold concentrated solution of the test compound in DMSO was pipetted into a black low volume 384 well microtiter plate (Greiner Bio-One, Frickenhausen, Germany), 2 μl of a solution of CDK9/CycT1 in aqueous assay buffer [50 mM Tris/HCl pH 8.0, 10 mM MgCl2, 1.0 mM dithiothreitol, 0.1 mM sodium ortho-vanadate, 0.01% (v/v) Nonidet-P40 (Sigma)] were added and the mixture was incubated for 15 min at 22° C. to allow pre-binding of the test compounds to the enzyme before the start of the kinase reaction. […] The concentration of CDK9/CycT1 was adjusted depending of the activity of the enzyme lot and was chosen appropriate to have the assay in the linear range, typical concentrations were in the range of 1 μg/mL. The reaction was stopped by the addition of 5 μl of a solution of TR-FRET detection reagents (0.2 μM streptavidine-XL665 [Cisbio Bioassays, Codolet, France] and 1 nM anti-RB(pSer807/pSer811)-antibody from BD Pharmingen [#558389] and 1.2 nM LANCE EU-W1024 labeled anti-mouse IgG antibody [Perkin-Elmer, product no. AD0077]) in an aqueous EDTA-solution (100 mM EDTA, 0.2% (w/v) bovine serum albumin in 100 mM HEPES pH 7.5).
The resulting mixture was incubated 1 h at 22° C. to allow the formation of complex between the phosphorylated biotinylated peptide and the detection reagents. Subsequently the amount of phosphorylated substrate was evaluated by measurement of the resonance energy transfer from the Eu-chelate to the streptavidine-XL. Therefore, the fluorescence emissions at 620 nm and 665 nm after excitation at 350 nm was measured in a HTRF reader, e.g. a Rubystar (BMG Labtechnologies, Offenburg, Germany) or a Viewlux (Perkin-Elmer). The ratio of the emissions at 665 nm and at […] was taken as the measure for the amount of phosphorylated substrate. The data were normalised (enzyme reaction without inhibitor=0% inhibition, all other assay components but no enzym=100% inhibition).

A2780 cells = assay: Proliferation assay, Cell Titre-Glo viability (Method 3); type: cell-based, human; conditions: Homo sapiens, A2780, 72 h, A2780, 72-hour exposure; read-out: Inhibition of A2780 cell proliferation IC50
Method: A2780 human ovarian carcinoma cells (ECACC #93112519) and non-adherent MOLM-13 human acute myeloid leukemia cells (DSMZ ACC 554) were seeded at a density of 3,000 cell/well (A2780) or 5,000 cells/well (MOLM-13) in a 96-well multititer plate in 150 μL of growth medium supplemented 10% fetal calf serum. After 24 hours, cell viability of one plate (zero-point plate) was determined with the Cell Titre-Glo Luminescent Cell Viability Assay (Promega), while the medium of the other plates was supplemented with the test substances in various concentrations (0 μM, as well as in the range of 0.0001-10 μM; the final concentration of the solvent dimethyl sulfoxide was adjusted to 0.1%) using a Hewlett-Packard HP D300 Digital Dispenser. Cell viability was assessed after 72-hour exposure with the Cell
Titre-Glo Luminescent Cell Viability Assay (Promega). IC50 values (inhibitory concentration at 50% of maximal effect) were determined by means of a 4 parameter fit on measurement data which were normalized to vehicle (DMSO) treated cells (=100%) and measurement readings taken immediately before compound exposure (=0%).

| IC50 (CDK9/CycT1) | Selectivity CDK9 over CDK2: IC50 (CDK2)/IC50 (CDK9) (CDK9/CycT1) | IC50 (A2780 cells) | Structure (SMILES) |
| --- | --- | --- | --- |
| 14.7 nM | 47.5 | 38 nM | CS(=O)(Cc1cc2nc(c1)Nc1cc(c(F)cn1)-c1ccc(F)cc1OCCCCN2)=NC(=O)OCc1ccccc1 (racemic) [Example 2, (rac)-Benzyl[{[16,20-difluoro-3,4,5,6-tetrahydro-2H,12H-11,7-(azeno)-13,17-(metheno)-1,6,12,14-benzoxatriazacyclononadecin-9-yl]methyl}(methyl)oxido-λ^6-sulfanylidene]carbamate] |
| 8.3 nM | 5.3 | 5.5 nM | CS(=N)(=O)Cc1cc2nc(c1)Nc1cc(c(F)cn1)-c1ccc(F)cc1OCCCCN2 (racemic) [Example 3, (rac)-16,20-Difluoro-9-[(S-methylsulfonimidoyl)methyl]-3,4,5,6-tetrahydro-2H,12H-11,7-(azeno)-13,17-(metheno)-1,6,12,14-benzoxatriazacyclononadecine] |
| 6.2 nM | 44.4 | 270 nM | C[S+]([O-])Cc1cc2nc(c1)OCCCCc1cc(F)ccc1-c1cc(ncc1F)N2 (racemic) [Example 5, (rac)-2,18-Difluoro-9-[(methylsulfinyl)methyl]-13,14,15,16-tetrahydro-6H-7,11-(azeno)-5,1-(metheno)-12,4,6-benzoxadiazacyclooctadecine] |
| 7.5 nM | 3.6 | 7 nM | CC(C)(C)OC(=O)N=S(C)(=O)Cc1cc2nc(c1)Nc1cc(c(F)cn1)-c1ccc(F)cc1OCCCN2 (racemic) [Example 7, (rac)-tert-butyl[{[15,19-difluoro-2,3,4,5-tetrahydro-11H-10,6-(azeno)-16,12-(metheno)-1,5,11,13-benzoxatriazacyclooctadecin-8-yl]methyl}(methyl)oxido-λ^6-sulfanylidene]carbamate] |
| 2.7 nM | 3.4 | 1.4 nM | CS(=N)(=O)Cc1cc2nc(c1)Nc1cc(c(F)cn1)-c1ccc(F)cc1OCCCN2 (racemic) [Example 8, (rac)-15,19-difluoro-8-[(S-methylsulfonimidoyl)methyl]-2,3,4,5-tetrahydro-11H-10,6-(azeno)-16,12-(metheno)-1,5,11,13-benzoxatriazacyclooctadecine] |
| 13 nM | 7.4 | 27 nM | CC(C)(C)OC(=O)N=S(C)(=O)Cc1cc2nc(c1)Nc1cc(c(F)cn1)-c1ccc(F)cc1OCCCCCN2 (racemic) [Example 9, (rac)-tert-butyl[{[17,21-difluoro-2,3,4,5,6,7-hexahydro-13H-12,8-(azeno)-14,18-(metheno)-1,7,13,15-benzoxatriazacycloicosin-10-yl]methyl}(methyl)oxido-λ^6-sulfanylidene]carbamate] |
| 3.4 nM | 8.2 | 5.2 nM | CS(=N)(=O)Cc1cc2nc(c1)Nc1cc(c(F)cn1)-c1ccc(F)cc1OCCCCCN2 (racemic) [Example 10, (rac)-17,21-difluoro-10-[(S-methylsulfonimidoyl)methyl]-2,3,4,5,6,7-hexahydro-13H-12,8-(azeno)-14,18-(metheno)-1,7,13,15-benzoxatriazacycloicosine] |
| 5.1 nM | 6.7 | 4.6 nM | CN1CCCCOc2cc(F)ccc2-c2cc(ncc2F)Nc2cc(CS(C)(=N)=O)cc1n2 (racemic) [Example 11, (rac)-16,20-difluoro-6-methyl-9-[(S-methylsulfonimidoyl)methyl]-3,4,5,6-tetrahydro-2H-7,11-(azeno)-17,13-(metheno)-1,6,12,14-benzoxatriazacyclononadecine] |
| 6.5 nM |  | 19 nM | CC(C)(C)OC(=O)N=S(C)(=O)Cc1cc2cc(c1)OCCCNc1cc(F)ccc1-c1nc(ncc1F)N2 (racemic) [Example 13, (rac)-tert-butyl[{[15,19-difluoro-1,2,3,4-tetrahydro-16,12-(azeno)-6,10-(metheno)-5,1,11,13-benzoxatriazacyclooctadecin-8(11H)-yl]methyl}(methyl)oxido-λ^6-sulfanylidene]carbamate] |
| 3.2 nM |  | 4.7 nM | CS(=N)(=O)Cc1cc2cc(c1)OCCCNc1cc(F)ccc1-c1nc(ncc1F)N2 (racemic) [Example 14, rac-15,19-difluoro-8-[(S-methylsulfonimidoyl)methyl]-1,2,3,4-tetrahydro-16,12-(azeno)-6,10-(metheno)-5,1,11,13-benzoxatriazacyclooctadecine] |
| 8.9 nM | 29.4 | 31 nM | CC(C)(C)OC(=O)N=S(C)(=O)Cc1cc2cc(c1)OCCCCNc1cc(F)ccc1-c1nc(ncc1F)N2 (racemic) [Example 15, (rac)-tert-butyl[{[16,20-difluoro-2,3,4,5-tetrahydro-1H,12H-13,17-(azeno)-11,7-(metheno)-6,1,12,14-benzoxatriazacyclononadecin-9-yl]methyl}(methyl)oxido-λ^6-sulfanylidene]carbamate] |
| 3.9 nM | 7.7 | 8.2 nM | CS(=N)(=O)Cc1cc2cc(c1)OCCCCNc1cc(F)ccc1-c1nc(ncc1F)N2 (racemic) [Example 16, (rac)-16,20-difluoro-9-[(S-methylsulfonimidoyl)methyl]-2,3,4,5-tetrahydro-1H-17,13-(azeno)-7,11-(metheno)-6,1,12,14-benzoxatriazacyclononadecine] |
|  |  | > 100 nM | CC(C)(C)OC(=O)N=S(C)(=O)Cc1cc2cc(c1)OCCCCSc1cc(F)ccc1-c1nc(ncc1F)N2 (racemic) [Example 21, (rac)-tert-butyl[{[16,20-difluoro-2,3,4,5-tetrahydro-12H-17,13-(azeno)-11,7-(metheno)-6,1,12,14-benzoxathiadiazacyclononadecin-9-yl]methyl}(methyl)oxido-λ^6-sulfanylidene]carbamate] |
|  |  | 45 nM | CS(=N)(=O)Cc1cc2cc(c1)OCCCCSc1cc(F)ccc1-c1nc(ncc1F)N2 (racemic) [Example 22, (rac)-16,20-difluoro-9-[(S-methylsulfonimidoyl)methyl]-2,3,4,5-tetrahydro-12H-17,13-(azeno)-11,7-(metheno)-6,1,12,14-benzoxathiadiazacyclononadecine] |
| 91 nM | 28.2 |  | CC(C)(C)OC(=O)N=S(C)(=O)Cc1cc2cc(c1)Nc1ncc(F)c(n1)-c1ccc(F)cc1OCCCCN2 (racemic) [Example 24, (rac)-tert-butyl[{[16,20-difluoro-3,4,5,6-tetrahydro-2H,12H-13,17-(azeno)-11,7-(metheno)-1,6,12,14-benzoxatriazacyclononadecin-9-yl]methyl}(methyl)oxido-λ^6-sulfanylidene]carbamate] |
| 36 nM | >556 |  | CSCc1cc2nc(c1)OCCCCc1cc(F)ccc1-c1cc(ncc1F)N2 [Example 4, 2,18-Difluoro-9-[(methylsulfanyl)methyl]-13,14,15,16-tetrahydro-6H-7,11-(azeno)-5,1-(metheno)-12,4,6-benzoxadiazacyclooctadecine] |
